The test system of assay [1] is PC-3M. Nature of the assay: Inhibition of colony formation in human PC3M cells after 7 days by crystal violet staining based assay. Format: functional, cell-based.
The nature of assay [2]: Antiproliferative activity against human ES2 cells after 48 hrs by SRB assay. Type of assay: functional, cell-based. Conditions: ES-2, 48 h.
Assay [3] in a line: Selectivity index, ratio of IC50 for HAF cells to IC50 for human PC3M cells. Type of assay: functional.
Assay [4] relates to PC-3M. Nature of the assay: Induction of apoptosis in human PC3M cells assessed as early apoptotic cells at 10 uM after 48 hrs by annexin V-FITC/propidium iodide staining based flow cytometry (reference value: 31.94%). Type of assay: functional.
Assay [5] concerns PC-3M. Nature of the assay: Induction of apoptosis in human PC3M cells assessed as early apoptotic cells at 10 uM after 24 hrs by annexin V-FITC/propidium iodide staining based flow cytometry (reference value: 15.20%). Format: functional.
Assay [6] relates to PC-3M. As to the kind of experiment: Induction of apoptosis in human PC3M cells assessed as late apoptotic cells at 5 uM after 24 hrs by annexin V-FITC/propidium iodide staining based flow cytometry (reference value: 0.97%). Format: functional.
Assay [7] has as its system PC-3M. Nature of the assay: Induction of apoptosis in human PC3M cells assessed as late apoptotic cells at 2.5 uM after 24 hrs by annexin V-FITC/propidium iodide staining based flow cytometry (reference value: 0.97%). Type of assay: functional.
A short description of assay [8]: Antiproliferative activity against HAF cells after 48 hrs by SRB assay. Type of assay: cell-based. The following applies: Homo sapiens.
For assay [9], the system named is PC-3M. Nature of the assay: Antimigratory activity against human PC3M cells after 12 hrs by crystal violet staining based transwell migration assay. Type of assay: functional, cell-based.
A short description of assay [10]: Cell cycle arrest in human PC3M cells assessed as accumulation at G1 phase at 10 uM after 24 hrs by propidium iodide staining based flow cytometry (reference value: 56.82%). Format: functional. Conditions: PC-3M.
Assay [11] deals with PC-3M. As to the kind of experiment: Induction of apoptosis in human PC3M cells assessed as late apoptotic cells at 20 uM after 48 hrs by annexin V-FITC/propidium iodide staining based flow cytometry (reference value: 0.32%). Type of assay: functional.
Assay [12] has as its system PC-3M. As to the kind of experiment: Induction of apoptosis in human PC3M cells assessed as early apoptotic cells at 2.5 uM after 24 hrs by annexin V-FITC/propidium iodide staining based flow cytometry (reference value: 15.20%). Type of assay: functional.
A short description of assay [13]: Antiproliferative activity against human HT-29 cells after 48 hrs by SRB assay. Format: functional, cell-based. Conditions: HT-29, 48 h.
The test system of assay [14] is PC-3M. Nature of the assay: Inhibition of colony formation in human PC3M cells at 10 uM after 7 days by crystal violet staining based assay. Format: functional, cell-based.
The subject of assay [15] is PC-3M. Nature of the assay: Induction of apoptosis in human PC3M cells assessed as late apoptotic cells at 20 uM after 24 hrs by annexin V-FITC/propidium iodide staining based flow cytometry (reference value: 0.97%). Format: functional.
Assay [16] can be described thus: Cell cycle arrest in human PC3M cells assessed as reduction in S phase at 2.5 to 20 uM after 24 hrs by propidium iodide staining based flow cytometry. Type of assay: functional. Conditions: PC-3M.
Assay [17] is described as follows: Selectivity index, ratio of IC50 for HAF cells to IC50 for human HT-29 cells. Type of assay: functional.
Assay [18] in a line: Cell cycle arrest in human PC3M cells assessed as accumulation at G1 phase at 20 uM after 24 hrs by propidium iodide staining based flow cytometry (reference value: 56.82%). The following applies: PC-3M. Format: functional.
The subject of assay [19] is PC-3M. Nature of the assay: Induction of apoptosis in human PC3M cells assessed as late apoptotic cells at 10 uM after 48 hrs by annexin V-FITC/propidium iodide staining based flow cytometry (reference value: 0.32%). Type of assay: functional.
Assay [20] can be described thus: Antimigratory activity against human PC3M cells at 20 uM after 12 hrs by crystal violet staining based transwell migration assay. Type of assay: functional, PC-3M.
The nature of assay [21]: Antiproliferative activity against human PC3M cells after 48 hrs by SRB assay. Type of assay: functional, cell-based. Conditions: PC-3M.
Assay [22] relates to PC-3M. Nature of the assay: Induction of apoptosis in human PC3M cells assessed as late apoptotic cells at 2.5 uM after 48 hrs by annexin V-FITC/propidium iodide staining based flow cytometry (reference value: 0.32%). Format: functional.
Assay [23] concerns PC-3M. As to the kind of experiment: Induction of apoptosis in human PC3M cells assessed as early apoptotic cells at 2.5 uM after 48 hrs by annexin V-FITC/propidium iodide staining based flow cytometry (reference value: 31.94%). Format: functional.
Assay [24] in a line: Cell cycle arrest in human PC3M cells assessed as accumulation at G1 phase at 5 uM after 24 hrs by propidium iodide staining based flow cytometry (reference value: 56.82%). Format: functional. The following applies: PC-3M.
Assay [25] in a line: Inhibition of colony formation in human PC3M cells at 5 uM after 7 days by crystal violet staining based assay. Type of assay: functional. The following applies: PC-3M, 168 h.
Assay [26] in a line: Cell cycle arrest in human PC3M cells assessed as accumulation at G1 phase at 2.5 uM after 24 hrs by propidium iodide staining based flow cytometry (reference value: 56.82%). Format: functional. The following applies: PC-3M.
Assay [27] deals with PC-3M. Nature of the assay: Induction of apoptosis in human PC3M cells assessed as early apoptotic cells at 20 uM after 24 hrs by annexin V-FITC/propidium iodide staining based flow cytometry (reference value: 15.20%). Format: functional.
In assay [28] the test system is PC-3M. Nature of the assay: Induction of apoptosis in human PC3M cells assessed as late apoptotic cells at 5 uM after 48 hrs by annexin V-FITC/propidium iodide staining based flow cytometry (reference value: 0.32%). Type of assay: functional.
In assay [29] the test system is PC-3M. Nature of the assay: Induction of apoptosis in human PC3M cells assessed as early apoptotic cells at 5 uM after 48 hrs by annexin V-FITC/propidium iodide staining based flow cytometry (reference value: 31.94%). Type of assay: functional.
For assay [30], the system named is PC-3M. As to the kind of experiment: Induction of apoptosis in human PC3M cells assessed as early apoptotic cells at 5 uM after 24 hrs by annexin V-FITC/propidium iodide staining based flow cytometry (reference value: 15.20%). Format: functional.
The nature of assay [31]: Cell cycle arrest in human PC3M cells assessed as accumulation at G1 phase after 24 hrs by propidium iodide staining based flow cytometry. Type of assay: functional. Conditions: PC-3M.
Assay [32] has as its system PC-3M. As to the kind of experiment: Induction of apoptosis in human PC3M cells assessed as late apoptotic cells at 10 uM after 24 hrs by annexin V-FITC/propidium iodide staining based flow cytometry (reference value: 0.97%). Type of assay: functional.
A short description of assay [33]: Selectivity index, ratio of IC50 for HAF cells to IC50 for human ES2 cells. Format: functional.
Assay [34] in a line: Antimigratory activity against human PC3M cells at 2.5 uM after 12 hrs by crystal violet staining based transwell migration assay relative to control. Type of assay: functional, PC-3M.
In assay [35] the test system is PC-3M. As to the kind of experiment: Induction of apoptosis in human PC3M cells assessed as early apoptotic cells at 20 uM after 48 hrs by annexin V-FITC/propidium iodide staining based flow cytometry (reference value: 31.94%). Format: functional.

Calls of active or inactive are those of the source. The rule behind the calls is not given here.

For the compound `C=C(C)C1CC[C@H]2[C@@H]3CC[C@H]([C@H](C)CCC(=O)N4CCNCC4)[C@@]3(C)CC[C@@H]2[C@@]1(C)CCC(=O)N1CCNCC1` (some centres undefined), in [1], the inhibition entry is “Dose-dependent effect”. Besides, the IC50 came to 3.86 µM in assay [2], 28.1 µM in assay [8], 4.58 µM in assay [13] and 1.07 µM in [21]. Further, the “Ratio IC50” value came out at 26.3 in [3], 6.1 in assay [17] and 7.3 in assay [33]. For the same compound, the Activity in assay [4] is 29.52%; in assay [5] it was 14.66%; in [6], 0.87%; in assay [7], 0.61%; in assay [9], “Dose-dependent effect”; in assay [10] it was 69%. In addition, the Activity was 1.31% in assay [11]; 15.36% in assay [12]; 0.9% in [15]; 79% in [18]; 0.79% in assay [19]; 100% in assay [20]. Also, the Activity in [22] amounted to 0.44%; in [23] it was 30.07%; in assay [24], 66.3%; in assay [26], 58.4%; in [27], 14.5%; in [28], 0.48%. Besides, the Activity in assay [29] was 30.18%; in assay [30] it was 13.78%; in [31], “Dose-dependent effect”; in [32], 0.6%; in assay [34], 50%; in assay [35], 22.72%. Besides, the inhibition result in assay [14] is “Active”. Besides, in assay [16], the result was Active. In addition, at 5 µM the inhibition in [25] was 70%.
`C=C(C)C1CC[C@H]2[C@@H]3CC[C@H]([C@H](C)CCC(=O)N4CCN(C(C)C)CC4)[C@@]3(C)CC[C@@H]2[C@@]1(C)CCC(=O)N1CCN(C(C)C)CC1` (some centres undefined): the IC50 was 6.68 µM in assay [2], 27 µM in assay [8], 9.91 µM in [13] and 1.66 µM in [21]. Besides, the “Ratio IC50” value in assay [3] came to 16.3; in assay [17], 2.7; in assay [33], 4.
Consider `C=C(C)C1CC[C@H]2[C@@H]3CC[C@H]([C@H](C)CCC(=O)N(CC)CC)[C@@]3(C)CC[C@@H]2[C@@]1(C)CCC(=O)N(CC)CC` (some centres undefined), for which the IC50 in [2] came out at 14.2 µM; in assay [8], 56.2 µM; in [13], 6.88 µM; in assay [21], 11.1 µM. For the same compound, the “Ratio IC50” value in assay [3] was 5.1; in [17], 8.1; in [33], 4.

For the origin of these results see ChEMBL document CHEMBL3867430, “Novel 3,4-seco bile acid diamides as selective anticancer proliferation and migration agents” (Eur J Med Chem, 2016).
